This passage reports MIC results from DBAASP.

In general, MIC refers to the lowest concentration found to suppress growth. High values mean a less susceptible organism, low ones a more susceptible organism.

Converted amounts (≈) assume the structure as drawn.

Assay in all cases: ≥ marks a high value that may be exact or a test limit, other limits are often not marked, values filed in µg/mL are converted to µM
The test system of experiment [1] is Staphylococcus aureus ATCC 15752.
Experiment [2] has as its system Escherichia coli KCTC 2223.
The test system of experiment [3] is Micrococcus luteus ATCC 10240.
Experiment [4] relates to Salmonella typhimurium KCTC 2370.
Experiment [5] relates to Salmonella enterica subsp. enterica serovar Enteritidis ATCC 13076.
Experiment [6] relates to Bacillus subtilis ATCC 62037.
Experiment [7] concerns Streptococcus mutans ATCC 25175.
Experiment [8] has as its system Escherichia coli ATCC 27325.
Experiment [9] relates to Saccharomyces cerevisiae ATCC 44774.
The test system of experiment [10] is Candida albicans ATCC 10231.
Experiment [11] deals with Pseudomonas putida ATCC 17426.

In the case of `CC(C)C[C@H](NC(=O)[C@H](CCCCN)NC(=O)[C@H](CCC(N)=O)NC(=O)[C@H](CCCCN)NC(=O)[C@H](CC(C)C)NC(=O)[C@H](CC(C)C)NC(=O)[C@H](CCC(N)=O)NC(=O)[C@H](CC(C)C)NC(=O)[C@H](CC(C)C)NC(=O)[C@@H]1CCCN1C(=O)[C@H](CCCN=C(N)N)NC(=O)[C@H](CC(C)C)NC(=O)[C@H](CC(C)C)NC(=O)[C@@H](N)CCCN=C(N)N)C(=O)N[C@@H](CCCN=C(N)N)C(=O)O` [RLLRPLLQLLKQKLR], the MIC in experiment [1] worked out at 1 µM (≈ 1.89 µg/mL); in [2], 16 µM (≈ 30.2 µg/mL); in [3], 1 µM (≈ 1.89 µg/mL); in experiment [4] it was 8 µM (≈ 15.1 µg/mL).
`CC[C@H](C)[C@H](NC(=O)[C@@H]1CCCN1C(=O)[C@H](Cc1c[nH]c2ccccc12)NC(=O)[C@H](CCC(N)=O)NC(=O)[C@H](CCCN=C(N)N)NC(=O)[C@@H](NC(=O)[C@@H](NC(=O)[C@@H](N)CCCN=C(N)N)C(C)C)C(C)C)C(=O)NCC(=O)N[C@@H](CCCN=C(N)N)C(=O)N[C@H](C(=O)N[C@H](C(=O)N[C@@H](CCCN=C(N)N)C(=O)N[C@@H](CCCN=C(N)N)C(=O)N[C@H](C(=O)N[C@H](C(=O)N[C@@H](CCCN=C(N)N)C(=O)N[C@@H](CCCN=C(N)N)C(=O)N[C@H](C(=O)N[C@H](C(=O)N[C@@H](CCCN=C(N)N)C(=O)N[C@@H](Cc1ccc(O)cc1)C(=O)O)C(C)C)C(C)C)C(C)C)C(C)C)C(C)C)C(C)C` [RVVRQWPIGRVVRRVVRRVVRY]: the MIC in experiment [1] is 0.713 µM (≈ 2 µg/mL); in experiment [5], 0.713 µM (≈ 2 µg/mL); in experiment [6], 0.713 µM (≈ 2 µg/mL); in [7] it was 0.713 µM (≈ 2 µg/mL); in [8], 1.43 µM (≈ 4 µg/mL); in experiment [9], 0.356 µM (≈ 1 µg/mL). For the same compound, the MIC in experiment [10] stood at 1.43 µM (≈ 4 µg/mL); in experiment [11] it was 0.713 µM (≈ 2 µg/mL).
